The NIST ThermoML archive (doi:10.1021/je200213h)

Assay: xn = mol fraction of the nth substance listed
Conditions: 101 kPa, Liquid, Capillary tube (Ostwald / Ubbelohde) method

CCC(C)(C)C [2,2-dimethylbutane] + CCC(C)Cl
kinematic viscosity [m2/s]
Conditions | 283.15 K | 298.15 K | 313.15 K
x1 = 0.0448 | 5.266e-07 | 4.621e-07 | 4.07e-07
x1 = 0.0993 | 5.3e-07 | 4.64e-07 | 4.086e-07
x1 = 0.2003 | 5.356e-07 | 4.679e-07 | 4.12e-07
x1 = 0.301 | 5.421e-07 | 4.719e-07 | 4.157e-07
x1 = 0.3993 | 5.494e-07 | 4.761e-07 | 4.2e-07
x1 = 0.4989 | 5.579e-07 | 4.815e-07 | 4.251e-07
x1 = 0.6039 | 5.683e-07 | 4.88e-07 | 4.309e-07
x1 = 0.7002 | 5.793e-07 | 4.949e-07 | 4.368e-07
x1 = 0.8033 | 5.935e-07 | 5.036e-07 | 4.438e-07
x1 = 0.9028 | 6.07e-07 | 5.122e-07 | 4.508e-07
x1 = 0.9518 | 6.147e-07 | 5.165e-07 | 4.546e-07

CCC(C)Cl (stereo unspecified) [2-chlorobutane] + CCCCCC
kinematic viscosity [m2/s]
Conditions | 283.15 K | 298.15 K | 313.15 K
x1 = 0.0509 | 5.186e-07 | 4.579e-07 | 4.034e-07
x1 = 0.1002 | 5.147e-07 | 4.548e-07 | 4.012e-07
x1 = 0.1802 | 5.09e-07 | 4.501e-07 | 3.98e-07
x1 = 0.3029 | 5.025e-07 | 4.448e-07 | 3.948e-07
x1 = 0.4045 | 4.989e-07 | 4.42e-07 | 3.932e-07
x1 = 0.4991 | 4.975e-07 | 4.408e-07 | 3.926e-07
x1 = 0.5974 | 4.968e-07 | 4.401e-07 | 3.926e-07
x1 = 0.6992 | 4.982e-07 | 4.406e-07 | 3.939e-07
x1 = 0.7996 | 5.007e-07 | 4.419e-07 | 3.961e-07
x1 = 0.8981 | 5.055e-07 | 4.447e-07 | 3.993e-07
x1 = 0.9477 | 5.086e-07 | 4.465e-07 | 4.015e-07

CCCCCl [1-chlorobutane] + CCCCCC
kinematic viscosity [m2/s]
Conditions | 283.15 K | 298.15 K | 313.15 K
x1 = 0.0508 | 5.501e-07 | 4.74e-07 | 4.182e-07
x1 = 0.0992 | 5.449e-07 | 4.701e-07 | 4.169e-07
x1 = 0.1972 | 5.351e-07 | 4.634e-07 | 4.118e-07
x1 = 0.2966 | 5.269e-07 | 4.577e-07 | 4.08e-07
x1 = 0.3976 | 5.198e-07 | 4.531e-07 | 4.048e-07
x1 = 0.5009 | 5.145e-07 | 4.495e-07 | 4.027e-07
x1 = 0.6006 | 5.112e-07 | 4.467e-07 | 4.011e-07
x1 = 0.6982 | 5.092e-07 | 4.451e-07 | 4.005e-07
x1 = 0.7972 | 5.082e-07 | 4.455e-07 | 4.01e-07
x1 = 0.8979 | 5.094e-07 | 4.464e-07 | 4.023e-07
x1 = 0.9472 | 5.103e-07 | 4.474e-07 | 4.027e-07

CC(C)(C)Cl [2-chloro-2-methylpropane] + CCCCCCC
kinematic viscosity [m2/s]
Conditions | 283.15 K | 298.15 K | 313.15 K
x2 = 0.0519 | 6.84e-07 | 5.603e-07 | 4.741e-07
x2 = 0.1021 | 6.722e-07 | 5.532e-07 | 4.711e-07
x2 = 0.2015 | 6.546e-07 | 5.438e-07 | 4.675e-07
x2 = 0.3006 | 6.44e-07 | 5.389e-07 | 4.666e-07
x2 = 0.3997 | 6.391e-07 | 5.38e-07 | 4.679e-07
x2 = 0.5027 | 6.376e-07 | 5.391e-07 | 4.699e-07
x2 = 0.6011 | 6.397e-07 | 5.434e-07 | 4.735e-07
x2 = 0.7014 | 6.441e-07 | 5.489e-07 | 4.78e-07
x2 = 0.8007 | 6.504e-07 | 5.572e-07 | 4.832e-07
x2 = 0.8966 | 6.591e-07 | 5.652e-07 | 4.894e-07
x2 = 0.9518 | 6.651e-07 | 5.706e-07 | 4.944e-07

CC(C)(C)Cl [2-chloro-2-methylpropane] + CCCCCC
kinematic viscosity [m2/s]
Conditions | 283.15 K | 298.15 K | 313.15 K
x2 = 0.0495 | 6.722e-07 | 5.527e-07 | 4.671e-07
x2 = 0.0989 | 6.489e-07 | 5.369e-07 | 4.565e-07
x2 = 0.2019 | 6.091e-07 | 5.105e-07 | 4.391e-07
x2 = 0.2987 | 5.81e-07 | 4.916e-07 | 4.266e-07
x2 = 0.4043 | 5.575e-07 | 4.756e-07 | 4.162e-07
x2 = 0.4985 | 5.415e-07 | 4.651e-07 | 4.095e-07
x2 = 0.6024 | 5.287e-07 | 4.571e-07 | 4.048e-07
x2 = 0.7017 | 5.203e-07 | 4.516e-07 | 4.019e-07
x2 = 0.7996 | 5.151e-07 | 4.489e-07 | 4.009e-07
x2 = 0.9025 | 5.123e-07 | 4.478e-07 | 4.016e-07
x2 = 0.9498 | 5.119e-07 | 4.483e-07 | 4.023e-07

CCC(C)(C)C [2,2-dimethylbutane] + CC(C)CCl
kinematic viscosity [m2/s]
Conditions | 283.15 K | 298.15 K | 313.15 K
x1 = 0.0487 | 5.82e-07 | 4.94e-07 | 4.366e-07
x1 = 0.0994 | 5.816e-07 | 4.941e-07 | 4.365e-07
x1 = 0.1995 | 5.814e-07 | 4.939e-07 | 4.362e-07
x1 = 0.2985 | 5.821e-07 | 4.939e-07 | 4.363e-07
x1 = 0.3993 | 5.834e-07 | 4.942e-07 | 4.366e-07
x1 = 0.5018 | 5.866e-07 | 4.958e-07 | 4.38e-07
x1 = 0.6011 | 5.899e-07 | 4.986e-07 | 4.402e-07
x1 = 0.6985 | 5.953e-07 | 5.025e-07 | 4.439e-07
x1 = 0.7995 | 6.024e-07 | 5.071e-07 | 4.476e-07
x1 = 0.8988 | 6.115e-07 | 5.13e-07 | 4.524e-07
x1 = 0.9479 | 6.158e-07 | 5.163e-07 | 4.542e-07

CC(C)CCl [1-chloro-2-methylpropane] + CCCCCC
kinematic viscosity [m2/s]
Conditions | 283.15 K | 298.15 K | 313.15 K
x2 = 0.0512 | 5.712e-07 | 4.863e-07 | 4.32e-07
x2 = 0.0999 | 5.631e-07 | 4.817e-07 | 4.282e-07
x2 = 0.2003 | 5.468e-07 | 4.711e-07 | 4.196e-07
x2 = 0.2993 | 5.339e-07 | 4.633e-07 | 4.128e-07
x2 = 0.4005 | 5.239e-07 | 4.566e-07 | 4.077e-07
x2 = 0.4977 | 5.171e-07 | 4.517e-07 | 4.041e-07
x2 = 0.598 | 5.12e-07 | 4.478e-07 | 4.017e-07
x2 = 0.6993 | 5.089e-07 | 4.462e-07 | 4.01e-07
x2 = 0.799 | 5.077e-07 | 4.455e-07 | 4.002e-07
x2 = 0.8967 | 5.092e-07 | 4.457e-07 | 4.006e-07
x2 = 0.9472 | 5.103e-07 | 4.474e-07 | 4.023e-07
